In PMC13210772, “Dual FLT3/MAPK14 Proteolysis-Targeting Chimera (PROTAC) Induces Potent Acute Myeloid Leukemia Cell Death” (Pharmaceuticals, 2026):

Experiments:
Assay in all cases: NanoBRET CELLinib128
ABL1 = target: T1, ABL1 (Homo sapiens, UniProt P00519); format: binding; settings: 100% no effect, 0% complete tracer displacement, read-out: Tracer bound
T1 construct: Full-length kinase ORF (Promega, Madison, WI, USA) cloned in frame with a NanoLuc-vector was transfected into HEK293T cells; host or cells: HEK293T

GSK3A = GSK3A (Homo sapiens, UniProt P49840); settings: read-out: Tracer bound
Sequence of GSK3A (P49840 whole entry): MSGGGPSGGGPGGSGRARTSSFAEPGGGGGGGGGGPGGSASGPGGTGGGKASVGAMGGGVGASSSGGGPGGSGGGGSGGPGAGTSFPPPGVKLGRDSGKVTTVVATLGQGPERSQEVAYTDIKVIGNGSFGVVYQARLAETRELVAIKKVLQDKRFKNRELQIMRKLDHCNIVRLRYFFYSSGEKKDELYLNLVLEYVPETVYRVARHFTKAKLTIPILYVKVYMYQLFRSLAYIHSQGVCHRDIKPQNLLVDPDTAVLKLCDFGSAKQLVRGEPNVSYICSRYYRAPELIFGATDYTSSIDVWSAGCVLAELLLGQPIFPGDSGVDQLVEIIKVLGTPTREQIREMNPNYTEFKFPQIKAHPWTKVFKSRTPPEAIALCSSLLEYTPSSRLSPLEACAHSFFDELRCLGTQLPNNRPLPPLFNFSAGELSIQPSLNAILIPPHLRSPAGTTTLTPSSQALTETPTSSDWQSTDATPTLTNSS

TESK1 = target: T2, TESK1 (Homo sapiens, UniProt Q15569); format: binding; settings: 100% no effect, 0% complete tracer displacement, read-out: Tracer bound
T2 construct: Full-length kinase ORF (Promega, Madison, WI, USA) cloned in frame with a NanoLuc-vector; host or cells: HEK293T
T2 sequence (Q15569 whole entry): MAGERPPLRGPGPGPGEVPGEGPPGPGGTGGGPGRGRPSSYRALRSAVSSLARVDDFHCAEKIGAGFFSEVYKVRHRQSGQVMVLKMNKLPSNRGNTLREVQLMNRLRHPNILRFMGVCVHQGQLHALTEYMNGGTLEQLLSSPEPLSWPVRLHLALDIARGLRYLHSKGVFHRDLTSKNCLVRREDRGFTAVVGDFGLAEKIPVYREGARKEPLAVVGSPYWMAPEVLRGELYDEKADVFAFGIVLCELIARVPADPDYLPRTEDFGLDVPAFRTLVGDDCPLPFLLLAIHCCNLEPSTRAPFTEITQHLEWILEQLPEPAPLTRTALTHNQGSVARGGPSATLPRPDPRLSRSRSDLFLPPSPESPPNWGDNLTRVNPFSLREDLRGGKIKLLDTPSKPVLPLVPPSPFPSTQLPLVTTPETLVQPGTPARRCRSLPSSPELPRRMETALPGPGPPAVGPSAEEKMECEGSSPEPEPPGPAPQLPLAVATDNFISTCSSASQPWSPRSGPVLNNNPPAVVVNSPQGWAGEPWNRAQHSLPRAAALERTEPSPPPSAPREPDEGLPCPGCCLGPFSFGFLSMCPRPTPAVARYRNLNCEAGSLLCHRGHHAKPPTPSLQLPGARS

MARK2 = target: T3, MARK2 (Homo sapiens, UniProt Q7KZI7); format: binding; settings: 100% no effect, 0% complete tracer displacement, read-out: Tracer bound
T3 construct: Full-length kinase ORF (Promega, Madison, WI, USA) cloned in frame with a NanoLuc-vector was transfected into HEK293T cells; host or cells: HEK293T

PTK2 = target: T4, PTK2 (Homo sapiens, UniProt Q05397); format: binding; settings: 100% no effect, 0% complete tracer displacement, read-out: Tracer bound
T4 construct: Full-length kinase ORF (Promega, Madison, WI, USA) cloned in frame with a NanoLuc-vector was transfected into HEK293T cells; host or cells: HEK293T
Procedure: (§1) To get an impression about the binding strength of the PROTAC MA191 and the reference inhibitor MA68 to other kinases besides FLT3-ITD the binding on a kinase panel of further 128 representative protein kinases at 1 μM concentration was tested using the NanoBRET^TM cellular target engagement assay (CELLinib128 assay, CELLinib GmbH, Frankfurt, Germany). […] In none of the 128 kinases MA191 was able to displace the tracer (inhibitor) used by more than 50%, Table S1, Supplementary Information).
(§2) The CELLinib128 assay was performed by CELLinib GmbH, Frankfurt (Germany) as described previously. In brief: Full-length kinase ORF (Promega, Madison, WI, USA) cloned in frame with a NanoLuc-vector was transfected into HEK293T cells in Opti-MEM without phenol red (Life Technologies, Carlsbad, CA, USA) at a density of 2 × 10^5 cells/mL using FuGENE HD (Promega, E2312) and proteins were allowed to express for 20 h. For CDKs, where indicated below, an excess of an activator without an NLuc-fusion was cotransfected. […] The system was allowed to equilibrate at 37 °C for 2 h and 5% CO2 prior to BRET measurements. For PKCs, a chemical activator PMA was added in a final concentration of 1 µM was added together with test compounds and tracers (Promega, V1171). To measure BRET, NanoBRET^TM NanoGlo substrate + extracellular NanoLuc inhibitor (Promega, N2160) were added as per the manufacturer’s protocol, and filtered luminescence was measured (450 nm BP filter (donor) and 610 nm LP filter (acceptor)). For the 1-shot test compounds, data were normalized to the tracer control and the background control or control compound plateau and an average and SD were calculated. […] For the control compounds competitive displacement data were normalized to the tracer Ctrl and the background Ctrl and then plotted and fitted using GraphPad Prism 10 software using a normalized 3-parameter curve fit with the following equation: Y = 100/(1 + 10^X−LogIC50).

ERN1 = target: T5, ERN1 (Homo sapiens, UniProt O75460); format: binding; settings: 100% no effect, 0% complete tracer displacement, read-out: Tracer bound
T5 construct: Full-length kinase ORF (Promega, Madison, WI, USA) cloned in frame with a NanoLuc-vector was transfected into HEK293T cells; host or cells: HEK293T
Procedure: as §1, §2

FGFR4 = target: T6, FGFR4 (Homo sapiens, UniProt P22455); format: binding; settings: 100% no effect, 0% complete tracer displacement, read-out: Tracer bound
T6 construct: Full-length kinase ORF (Promega, Madison, WI, USA) cloned in frame with a NanoLuc-vector was transfected into HEK293T cells; host or cells: HEK293T
Procedure: as §1, §2

CDK4-CCND3 = target: T7, CDK4-CCND3 (Homo sapiens, UniProt P11802); format: binding; settings: 100% no effect, 0% complete tracer displacement, read-out: Tracer bound
T7 construct: Full-length kinase ORF (Promega, Madison, WI, USA) cloned in frame with a NanoLuc-vector was transfected into HEK293T cells; host or cells: HEK293T
Procedure: as §1, §2

LIMK2 = target: T8, LIMK2 (Homo sapiens, UniProt P53671); format: binding; settings: 100% no effect, 0% complete tracer displacement, read-out: Tracer bound
T8 construct: Full-length kinase ORF (Promega, Madison, WI, USA) cloned in frame with a NanoLuc-vector was transfected into HEK293T cells; host or cells: HEK293T
Procedure: as §1, §2

NEK9 = target: T9, NEK9 (Homo sapiens, UniProt Q8TD19); format: binding; settings: 100% no effect, 0% complete tracer displacement, read-out: Tracer bound
T9 construct: Full-length kinase ORF (Promega, Madison, WI, USA) cloned in frame with a NanoLuc-vector was transfected into HEK293T cells; host or cells: HEK293T
Procedure: as §1, §2

IRAK3 = target: T10, IRAK3 (Homo sapiens, UniProt Q9Y616); format: binding; settings: 100% no effect, 0% complete tracer displacement, read-out: Tracer bound
T10 construct: Full-length kinase ORF (Promega, Madison, WI, USA) cloned in frame with a NanoLuc-vector was transfected into HEK293T cells; host or cells: HEK293T
Procedure: as §1, §2

MAP3K11 = target: T11, MAP3K11 (Homo sapiens, UniProt Q16584); format: binding; settings: 1 µM; 100% no effect, 0% complete tracer displacement
T11 construct: Full-length kinase ORF (Promega, Madison, WI, USA) cloned in frame with a NanoLuc-vector was transfected into HEK293T cells; host or cells: HEK293T
Procedure: as §1, §2

NEK1 = target: T12, NEK1 (Homo sapiens, UniProt Q96PY6); format: binding; settings: 100% no effect, 0% complete tracer displacement, read-out: Tracer bound
T12 construct: Full-length kinase ORF (Promega, Madison, WI, USA) cloned in frame with a NanoLuc-vector was transfected into HEK293T cells; host or cells: HEK293T
Procedure: as §1, §2

MAPK6 = target: T13, MAPK6 (Homo sapiens, UniProt Q16659); format: binding; settings: 100% no effect, 0% complete tracer displacement, read-out: Tracer bound
T13 construct: Full-length kinase ORF (Promega, Madison, WI, USA) cloned in frame with a NanoLuc-vector was transfected into HEK293T cells; host or cells: HEK293T
T13 sequence (Q16659 whole entry): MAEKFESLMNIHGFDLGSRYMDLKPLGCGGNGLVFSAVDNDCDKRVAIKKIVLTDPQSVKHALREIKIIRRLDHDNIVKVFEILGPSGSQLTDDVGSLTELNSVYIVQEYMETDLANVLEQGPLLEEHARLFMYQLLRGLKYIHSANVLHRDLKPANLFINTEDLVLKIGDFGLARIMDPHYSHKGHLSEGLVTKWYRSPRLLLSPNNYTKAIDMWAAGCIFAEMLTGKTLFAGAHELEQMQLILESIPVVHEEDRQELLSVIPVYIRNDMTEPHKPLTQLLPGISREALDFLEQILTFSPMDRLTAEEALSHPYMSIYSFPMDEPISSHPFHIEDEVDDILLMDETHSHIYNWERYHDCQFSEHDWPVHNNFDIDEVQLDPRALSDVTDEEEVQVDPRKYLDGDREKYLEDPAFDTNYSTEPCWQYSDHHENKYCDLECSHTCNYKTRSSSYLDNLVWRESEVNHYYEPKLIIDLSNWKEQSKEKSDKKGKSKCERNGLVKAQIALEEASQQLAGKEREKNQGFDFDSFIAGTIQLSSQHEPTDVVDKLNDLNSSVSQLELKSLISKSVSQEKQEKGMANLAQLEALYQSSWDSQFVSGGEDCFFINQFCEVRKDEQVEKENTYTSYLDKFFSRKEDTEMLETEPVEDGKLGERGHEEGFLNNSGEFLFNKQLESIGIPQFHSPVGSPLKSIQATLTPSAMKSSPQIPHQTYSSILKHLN
Procedure: as §1, §2

AURKB = target: T14, AURKB (Homo sapiens, UniProt Q96GD4); format: binding; settings: 100% no effect, 0% complete tracer displacement, read-out: Tracer bound
T14 construct: Full-length kinase ORF (Promega, Madison, WI, USA) cloned in frame with a NanoLuc-vector was transfected into HEK293T cells; host or cells: HEK293T
Procedure: as §1, §2

CAMK2A = target: T15, CAMK2A (Homo sapiens, UniProt Q9UQM7); format: binding; settings: 100% no effect, 0% complete tracer displacement, read-out: Tracer bound
T15 construct: Full-length kinase ORF (Promega, Madison, WI, USA) cloned in frame with a NanoLuc-vector was transfected into HEK293T cells; host or cells: HEK293T
Procedure: as §1, §2

CDK5-CDK5R2 = target: T16, CDK5-CDK5R2 (Homo sapiens, UniProt Q00535); format: binding; settings: 100% no effect, 0% complete tracer displacement, read-out: Tracer bound
T16 construct: Full-length kinase ORF (Promega, Madison, WI, USA) cloned in frame with a NanoLuc-vector was transfected into HEK293T cells; host or cells: HEK293T
T16 sequence (Q00535 whole entry): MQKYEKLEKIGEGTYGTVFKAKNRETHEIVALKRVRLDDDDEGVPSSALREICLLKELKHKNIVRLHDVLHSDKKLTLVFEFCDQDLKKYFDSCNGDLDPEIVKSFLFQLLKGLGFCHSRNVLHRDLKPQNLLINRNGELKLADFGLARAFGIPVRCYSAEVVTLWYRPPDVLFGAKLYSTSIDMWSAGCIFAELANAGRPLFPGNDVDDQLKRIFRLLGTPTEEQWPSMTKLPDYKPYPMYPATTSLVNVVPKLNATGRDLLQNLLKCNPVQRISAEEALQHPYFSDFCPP
T16 sequence (Q13319 whole entry partner): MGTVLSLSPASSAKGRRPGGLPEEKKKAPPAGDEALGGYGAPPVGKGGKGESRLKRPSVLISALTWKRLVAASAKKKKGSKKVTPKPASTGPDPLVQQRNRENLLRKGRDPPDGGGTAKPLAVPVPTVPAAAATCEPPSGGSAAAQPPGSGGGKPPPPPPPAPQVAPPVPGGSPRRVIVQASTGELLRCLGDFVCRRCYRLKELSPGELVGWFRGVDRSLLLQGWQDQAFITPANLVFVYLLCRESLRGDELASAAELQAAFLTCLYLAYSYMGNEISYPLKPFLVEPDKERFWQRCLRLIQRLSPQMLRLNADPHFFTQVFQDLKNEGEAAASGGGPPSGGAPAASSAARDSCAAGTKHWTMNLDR
Procedure: as §1, §2

DCLK3 = target: T17, DCLK3 (Homo sapiens, UniProt Q9C098); format: binding; settings: 100% no effect, 0% complete tracer displacement, read-out: Tracer bound
T17 construct: Full-length kinase ORF (Promega, Madison, WI, USA) cloned in frame with a NanoLuc-vector was transfected into HEK293T cells; host or cells: HEK293T
Procedure: as §1, §2

FGFR2 = target: T18, FGFR2 (Homo sapiens, UniProt P21802); format: binding; settings: 100% no effect, 0% complete tracer displacement, read-out: Tracer bound
T18 construct: Full-length kinase ORF (Promega, Madison, WI, USA) cloned in frame with a NanoLuc-vector was transfected into HEK293T cells; host or cells: HEK293T
T18 sequence (P21802 22-821): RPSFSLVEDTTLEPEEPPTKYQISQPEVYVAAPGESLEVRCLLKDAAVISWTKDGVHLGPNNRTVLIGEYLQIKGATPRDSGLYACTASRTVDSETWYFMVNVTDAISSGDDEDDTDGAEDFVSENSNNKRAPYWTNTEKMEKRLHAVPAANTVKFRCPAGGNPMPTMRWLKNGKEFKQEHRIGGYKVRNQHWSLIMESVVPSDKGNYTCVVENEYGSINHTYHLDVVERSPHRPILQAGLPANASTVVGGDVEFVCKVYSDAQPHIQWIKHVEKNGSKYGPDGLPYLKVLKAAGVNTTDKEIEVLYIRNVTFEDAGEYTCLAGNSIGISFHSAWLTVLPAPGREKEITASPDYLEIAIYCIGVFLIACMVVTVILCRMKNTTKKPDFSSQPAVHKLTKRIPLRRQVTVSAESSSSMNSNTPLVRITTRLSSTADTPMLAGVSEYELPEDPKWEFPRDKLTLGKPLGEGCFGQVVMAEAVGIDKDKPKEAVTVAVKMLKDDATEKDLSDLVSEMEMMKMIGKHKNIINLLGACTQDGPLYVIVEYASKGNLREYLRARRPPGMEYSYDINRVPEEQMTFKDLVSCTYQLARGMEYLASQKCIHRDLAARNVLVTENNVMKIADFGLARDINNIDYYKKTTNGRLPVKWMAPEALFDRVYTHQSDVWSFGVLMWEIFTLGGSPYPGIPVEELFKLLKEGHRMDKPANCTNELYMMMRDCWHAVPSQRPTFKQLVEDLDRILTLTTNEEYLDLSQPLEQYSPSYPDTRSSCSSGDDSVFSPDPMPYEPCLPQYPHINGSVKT
Procedure: as §1, §2

WEE2 = target: T19, WEE2 (Homo sapiens, UniProt P0C1S8); format: binding; settings: 100% no effect, 0% complete tracer displacement, read-out: Tracer bound
T19 construct: Full-length kinase ORF (Promega, Madison, WI, USA) cloned in frame with a NanoLuc-vector; host or cells: HEK293T
Procedure: as §1, §2

SRMS = target: T20, SRMS (Homo sapiens, UniProt Q9H3Y6); format: binding; settings: 100% no effect, 0% complete tracer displacement, read-out: Tracer bound
T20 construct: Full-length kinase ORF (Promega, Madison, WI, USA) cloned in frame with a NanoLuc-vector was transfected into HEK293T cells; host or cells: HEK293T
Procedure: as §1, §2

STK3 = target: T21, STK3 (Homo sapiens, UniProt Q13188); format: binding; settings: 100% no effect, 0% complete tracer displacement, read-out: Tracer bound
T21 construct: Full-length kinase ORF (Promega, Madison, WI, USA) cloned in frame with a NanoLuc-vector was transfected into HEK293T cells; host or cells: HEK293T
T21 sequence (Q13188 whole entry): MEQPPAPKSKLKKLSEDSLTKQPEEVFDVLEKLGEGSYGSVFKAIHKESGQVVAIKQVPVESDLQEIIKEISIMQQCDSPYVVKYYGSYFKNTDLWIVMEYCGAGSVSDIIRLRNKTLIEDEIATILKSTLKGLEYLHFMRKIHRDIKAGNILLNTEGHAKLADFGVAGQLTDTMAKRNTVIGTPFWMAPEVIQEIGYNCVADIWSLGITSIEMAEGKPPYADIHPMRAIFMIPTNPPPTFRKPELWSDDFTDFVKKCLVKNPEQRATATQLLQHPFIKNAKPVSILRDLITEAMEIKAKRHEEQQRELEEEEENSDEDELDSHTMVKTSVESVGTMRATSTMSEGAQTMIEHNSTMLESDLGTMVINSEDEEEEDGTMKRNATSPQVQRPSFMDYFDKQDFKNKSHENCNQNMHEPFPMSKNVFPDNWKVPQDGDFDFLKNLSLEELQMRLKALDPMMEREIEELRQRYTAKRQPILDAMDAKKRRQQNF
Procedure: as §1, §2

PRKCD-PMA = target: T22, PRKCD-PMA (Homo sapiens, UniProt Q05655); format: binding; settings: 100% no effect, 0% complete tracer displacement, read-out: Tracer bound
T22 construct: Full-length kinase ORF (Promega, Madison, WI, USA) cloned in frame with a NanoLuc-vector was transfected into HEK293T cells; host or cells: HEK293T
Procedure: as §1, §2

RPS6KA6 = target: T23, RPS6KA6 (Homo sapiens, UniProt Q9UK32); format: binding; settings: 1 µM; 100% no effect, 0% complete tracer displacement
T23 construct: Full-length kinase ORF (Promega, Madison, WI, USA) cloned in frame with a NanoLuc-vector was transfected into HEK293T cells; host or cells: HEK293T
Procedure: as §1, §2

ULK3v1 = target: T24, ULK3v1 (Homo sapiens, UniProt Q6PHR2); format: binding; settings: 1 µM; 100% no effect, 0% complete tracer displacement
T24 construct: Full-length kinase ORF (Promega, Madison, WI, USA) cloned in frame with a NanoLuc-vector; host or cells: HEK293T
Procedure: as §1, §2

RPS6KA2 = target: T25, RPS6KA2 (Homo sapiens, UniProt Q15349); format: binding; settings: 100% no effect, 0% complete tracer displacement, read-out: Tracer bound
T25 construct: Full-length kinase ORF (Promega, Madison, WI, USA) cloned in frame with a NanoLuc-vector was transfected into HEK293T cells; host or cells: HEK293T
T25 sequence (Q15349 whole entry): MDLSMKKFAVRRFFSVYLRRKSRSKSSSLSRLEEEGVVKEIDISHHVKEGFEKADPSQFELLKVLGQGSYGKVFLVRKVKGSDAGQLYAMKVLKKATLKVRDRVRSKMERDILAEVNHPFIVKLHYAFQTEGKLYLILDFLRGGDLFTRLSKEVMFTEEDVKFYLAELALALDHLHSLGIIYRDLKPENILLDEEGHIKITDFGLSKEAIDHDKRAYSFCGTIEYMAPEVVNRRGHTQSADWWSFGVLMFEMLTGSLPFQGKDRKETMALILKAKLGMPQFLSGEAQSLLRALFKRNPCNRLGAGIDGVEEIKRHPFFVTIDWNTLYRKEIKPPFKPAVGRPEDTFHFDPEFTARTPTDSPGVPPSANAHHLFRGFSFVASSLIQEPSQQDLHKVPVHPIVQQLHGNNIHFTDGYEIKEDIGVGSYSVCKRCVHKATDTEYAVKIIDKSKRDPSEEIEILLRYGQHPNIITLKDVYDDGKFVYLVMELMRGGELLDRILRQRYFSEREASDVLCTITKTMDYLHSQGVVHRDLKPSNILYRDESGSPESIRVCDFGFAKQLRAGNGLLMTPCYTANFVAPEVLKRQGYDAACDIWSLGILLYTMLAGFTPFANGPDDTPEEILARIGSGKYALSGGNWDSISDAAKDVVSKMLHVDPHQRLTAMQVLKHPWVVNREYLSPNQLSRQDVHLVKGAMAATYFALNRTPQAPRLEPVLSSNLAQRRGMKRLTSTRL
Procedure: as §1, §2

PLK4 = target: T26, PLK4 (Homo sapiens, UniProt O00444); format: binding; settings: 100% no effect, 0% complete tracer displacement, read-out: Tracer bound
T26 construct: Full-length kinase ORF (Promega, Madison, WI, USA) cloned in frame with a NanoLuc-vector was transfected into HEK293T cells; host or cells: HEK293T
Procedure: as §1, §2

EPHA5 = target: T27, EPHA5 (Homo sapiens, UniProt P54756); format: binding; settings: 1 µM; 100% no effect, 0% complete tracer displacement
T27 construct: Full-length kinase ORF (Promega, Madison, WI, USA) cloned in frame with a NanoLuc-vector was transfected into HEK293T cells; host or cells: HEK293T

TEC = TEC (Homo sapiens, UniProt P42680); settings: read-out: Tracer bound
STK17B = target: T28, STK17B (Homo sapiens, UniProt O94768); format: binding; settings: 100% no effect, 0% complete tracer displacement, read-out: Tracer bound
T28 construct: Full-length kinase ORF (Promega, Madison, WI, USA) cloned in frame with a NanoLuc-vector was transfected into HEK293T cells; host or cells: HEK293T
T28 sequence (O94768 whole entry): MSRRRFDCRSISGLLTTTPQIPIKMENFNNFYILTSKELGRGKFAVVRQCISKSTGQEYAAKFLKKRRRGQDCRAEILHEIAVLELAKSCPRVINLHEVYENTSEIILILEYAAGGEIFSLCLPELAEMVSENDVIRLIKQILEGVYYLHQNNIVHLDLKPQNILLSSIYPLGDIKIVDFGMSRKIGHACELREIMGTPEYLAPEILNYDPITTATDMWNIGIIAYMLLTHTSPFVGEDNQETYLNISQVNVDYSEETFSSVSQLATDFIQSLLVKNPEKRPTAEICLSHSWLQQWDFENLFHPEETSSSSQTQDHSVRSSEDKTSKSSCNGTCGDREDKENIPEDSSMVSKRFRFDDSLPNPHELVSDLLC

- remaining activity at 1 µM (ABL1): 105%
- remaining activity at 1 µM (GSK3A): 118%
- remaining activity at 1 µM (TESK1): 116%
- remaining activity at 1 µM (MARK2): 110%
- remaining activity at 1 µM (PTK2): 113%
- remaining activity at 1 µM (ERN1): 116%
- remaining activity at 1 µM (FGFR4): 92.7%
- remaining activity at 1 µM (CDK4-CCND3): 105%
- remaining activity at 1 µM (LIMK2): 105%
- remaining activity at 1 µM (IRAK3): 115%
- Tracer bound (MAP3K11): 108.2%
- remaining activity at 1 µM (NEK1): 95.9%
- remaining activity at 1 µM (MAPK6): 120%
- remaining activity at 1 µM (AURKB): 109%
- remaining activity at 1 µM (CAMK2A): 102%
- remaining activity at 1 µM (CDK5-CDK5R2): 104%
- remaining activity at 1 µM (DCLK3): 102%
- remaining activity at 1 µM (FGFR2): 109%
- remaining activity at 1 µM (WEE2): 99.3%
- remaining activity at 1 µM (SRMS): 94.4%
- remaining activity at 1 µM (STK3): 105%
- remaining activity at 1 µM (PRKCD-PMA): 115%
- Tracer bound (RPS6KA6): 107.5%
- Tracer bound (ULK3v1): 107.8%
- remaining activity at 1 µM (RPS6KA2): 114%
- remaining activity at 1 µM (PLK4): 112%
- Tracer bound (EPHA5): 120.0%
- remaining activity at 1 µM (TEC): 113%
- remaining activity at 1 µM (STK17B): 92.4%
SMILES: Cc1ncsc1-c1ccc([C@H](C)NC(=O)[C@@H]2C[C@@H](O)CN2C(=O)[C@@H](NC(=O)[C@H]2CC[C@H](C(=O)N3CCN(CCNC(=O)c4cc(Oc5ccc(NC(=O)Nc6cc(C(C)(C)C)on6)cc5)ccn4)CC3)CC2)C(C)(C)C)cc1 [MA191, 4-(4-(3-(5-(tert-Butyl)isoxazol-3-yl)ureido)phenoxy)-N-(2-(4-(trans-4-(((S)-1-((2S,4R)-4-hydroxy-2-(((S)-1-(4-(4-methylthiazol-5-yl)phenyl)ethyl)carbamoyl)pyrrolidin-1-yl)-3,3-dimethyl-1-oxobutan-2-yl)carbamoyl)cyclohexanecarbonyl)piperazin-1-yl)ethyl)picolinamide]
- remaining activity at 1 µM (NEK9): 109%
